These results are taken from patent publication US7935700B2, “Morpholine compound” (Mitsubishi Tanabe Pharma Corporation, priority 2004, dated 2011).

SMILES strings stand for the structures. Structures can show the parent of a compound that is named as a salt. Where two headings read alike, the source gives them in different places.

The target of assay [1] is T1, CCR3 (Homo sapiens, UniProt P51677).
T1 construct: Eosinophils separated from peripheral blood of healthy subject; endogenous in cells; host or cells: eosinophils separated from peripheral blood of healthy subject
T1 sequence (P51677 1-355): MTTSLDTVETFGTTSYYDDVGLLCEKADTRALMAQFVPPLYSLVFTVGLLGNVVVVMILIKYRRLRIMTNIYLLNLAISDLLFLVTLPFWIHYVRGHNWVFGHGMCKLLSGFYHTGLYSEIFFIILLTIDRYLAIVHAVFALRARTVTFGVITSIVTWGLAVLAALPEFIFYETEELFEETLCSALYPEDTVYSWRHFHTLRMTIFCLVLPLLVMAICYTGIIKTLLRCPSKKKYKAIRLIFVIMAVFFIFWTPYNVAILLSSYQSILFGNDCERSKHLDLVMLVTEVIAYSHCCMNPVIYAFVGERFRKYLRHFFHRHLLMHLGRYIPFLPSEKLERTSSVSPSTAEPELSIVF
The experiment in a line: Effect on intracellular calcium concentration in eosinophils upon CCL11 stimulation. The note with it: peripheral blood eosinophils of healthy subject, agonist CCL11 1.0 nmol/L, compound 3 min before stimulation, Fura-2 AM; read-out: IC50 (50% suppression of the increase in the intracellular calcium concentration). The format is cell-based. As to the method:
Effect on Intracellular Calcium Concentration
The effect of the compound of the present invention on intracellular calcium mobilization in peripheral blood eosinophils of healthy subject upon CCL11 stimulation was examined by the following method.
Eosinophils separated from peripheral blood of healthy subject were suspended in 0.5% bovine serum albumin-containing phosphate buffered saline, and incubated at 37° C. for 45 min in the presence of 5 μmol/L of Fura-2 AM (manufactured by DOJINDO LABORATORIES).
After incubation, the cells were washed 3 times with a measurement buffer (10 mmol/L HEPES, and 0.5% bovine serum albumin-containing hanks' balanced salt solution) to remove Fura-2 AM that was not incorporated into the cells.
Finally, the cells were adjusted to 1×10^6 cells/mL with the measurement buffer and preserved in a dark place until measurement. The intracellular calcium was measured using FDSS3000 manufactured by Hamamatsu Photonics K.K. In other words, the cell suspension (0.1 mL) loaded with Fura-2 AM was placed in a 96 well plate for measurement, the fluorescence intensity to the excitation light at wavelengths 340 nm and 380 nm was measured by FDSS3000, the ratio of the fluorescence intensity to the excitation light at these two wavelengths was determined, based on which the intracellular calcium concentration was calculated. As the agonist, used was CCL11 (1.0 nmol/L), which is a CCR3 selective ligand, and the antagonistic activity was determined as 50% suppression rate (IC50 value) of the increase in the intracellular calcium concentration, when eosinophils were treated with various concentrations of the compound of the present invention at 3 min before agonist stimulation.

The target in assay [2] is human eosinophils. Briefly: Binding inhibitory test of chemokine ([125I]-eotaxin) to human eosinophils. The note with it: 50 pmol/L [125I]-eotaxin, 2x10^5 eosinophils, 25°C, 1 hr; read-out: IC50 (concentration of test compound necessary for decreasing binding of [125I]-eotaxin to human eosinophils by 50%). The protocol: Binding Inhibitory Test of Chemokine to Human Eosinophils
Human eosinophils were separated by the CD16 negative selection method from anticoagulation-treated peripheral blood of healthy subject (e.g., J. Immunol. Methods, vol. 145, pages 105-110, 1991). The separated eosinophils (2×10^5 cells), 50 pmol/L[^125I]-eotaxin (2000 Ci/mmoL, manufactured by Amersham Pharmacia Biotech) and a test compounds were mixed in 0.1 mL of binding buffer (50 mmol/L HEPES, 1 mmol/L CaCl2, 5 mmol/L MgCl2, 0.5% bovine serum albumin (BSA), 0.1% sodium azide, pH 7.4), and the mixture was incubated in a multiscreen plate (manufactured by MILLIPORE) at 25° C. for 1 hr. After incubation, the reaction mixture in the multiscreen plate was filtered by vacuum manifold, and washed with 0.6 mL of a cold washing buffer (50 mmol/L HEPES, 1 mmol/L CaCl2, 5 mmol/L MgCl2, 0.5 mol/L NaCl, 0.1% sodium azide, pH 7.4), and the radioactivity maintained on the filter was measured. […] The IC50 values (concentration of test compound necessary for decreasing binding of [^125I]-eotaxin to human eosinophils by 50%) of some of the compounds of the present invention were as follows.

Assay [3] relates to mouse ovalbumin (OVA) induced allergic and biphasic ear edema. Briefly: Antigen (OVA) induced allergic and biphasic ear edema model. Type of assay: in vivo. The note with it: male BALB/c mice, oral once a day from 2 days before induction, 3 or 10 mg/kg tested. The protocol: 3: Effect on Antigen Induced Allergic and Biphasic Ear Edema Model
The in vivo effect of the compound of the present invention was examined using a mouse ovalbumin (OVA) induced allergic and biphasic ear edema model. The model was prepared according to the method of Sugawara et al. (Allergy & Clinical Immunology International, Supplement No. 2, P 785, 2000). In other words, male BALB/c mice were immunized by intraperitoneal injection with 10 μg of OVA and 1 mg of aluminum hydroxide gel (Alum). At 14 days after immunization, OVA (5 μg) were subcutaneously injected to the both ears of the mouse, whereby ear edema was induced. The thickness of the ears was measured using a dial sickness gauge immediately before subcutaneous injection and 1 and 24 hrs after subcutaneous injection of OVA. The compound of the present invention was suspended in a vehicle, 0.5% hydroxypropylmethyl cellulose solution, and orally administered at 3 mg/kg or 10 mg/kg once a day using an orally gavage needle from 2 days before ear edema induction.

Where [4] appears, read: ear thickness 1 hr after OVA, read-out: Dose that showed a significant suppressive action vs vehicle, Immediate phase.
The mark [5] stands for this setting: ear thickness 24 hrs after OVA, read-out: Dose that showed a significant suppressive action vs vehicle, Late phase.

With `Cc1nc(-c2csc(SCC(=O)NC[C@H]3CN(Cc4ccc(Cl)c(Cl)c4)CCO3)n2)no1` [Example 23, (2S)-N-{[4-(3,4-dichlorobenzyl)morpholin-2-yl]methyl}-[4-(5-methyl-1,2,4-oxadiazol-3-yl)thiazol-2-ylthio]acetamide hydrochloride], the values for the IC50 in assay [1] and in assay [2] were 0.8 nM and 1 nM, respectively.

For `NC(=O)CNC(=O)c1csc(SCC(=O)NC[C@H]2CN(Cc3ccc(Cl)c(Cl)c3)CCO2)n1` [Example 17, (2S)-{4-[(2-amino-2-oxoethyl)aminocarbonyl]thiazol-2-ylthio}-N-{[4-(3,4-dichlorobenzyl)morpholin-2-yl]methyl}acetamide], the IC50 in assay [1] is 2.5 nM; in assay [2] it was 0.9 nM. Also, the minimal effective dose in assay [3] (setting [4]) and in assay [3] (setting [5]) was 3 mg/kg each time.

As to `O=C(O)Cc1csc(SCC(=O)NC[C@H]2CN(Cc3ccc(Cl)c(Cl)c3)CCO2)n1` [Example 2, (2S)-[4-(carboxymethyl)thiazol-2-ylthio]-N-{[4-(3,4-dichlorobenzyl)morpholin-2-yl]methyl}acetamide], the IC50 in assay [1] is 1.8 nM; in assay [2], 2.4 nM. The minimal effective dose in assay [3] (setting [4]) and in assay [3] (setting [5]) was 3 mg/kg each time.

On to `Nc1ccc2c(c1)-c1nc(SCC(=O)NC[C@H]3CN(Cc4ccc(Cl)c(Cl)c4)CCO3)sc1C2` [Example 27, (2S)-(5-amino-8H-indeno[1,2-d]thiazol-2-ylthio)-N-{[4-(3,4-dichlorobenzyl)morpholin-2-yl]methyl}acetamide], for which, in assay [2], the IC50 was found to be 2.3 nM.

Consider `COc1ccc(-c2csc(SCC(=O)NC[C@H]3CN(Cc4ccc(Cl)c(Cl)c4)CCO3)n2)cc1OC` [Example 13, (2S)-N-{[4-(3,4-dichlorobenzyl)morpholin-2-yl]methyl}-[4-(3,4-dimethoxyphenyl)thiazol-2-ylthio]acetamide], for which the IC50 in assay [2] came to 0.4 nM.

With `NC(=O)c1csc(SCC(=O)NC[C@H]2CN(Cc3ccc(Cl)c(Cl)c3)CCO2)n1` [Example 15, (2S)-(4-carbamoylthiazol-2-ylthio)-N-{[4-(3,4-dichlorobenzyl)morpholin-2-yl]methyl}acetamide], the IC50 in assay [1] was determined as 1.6 nM; in assay [2], 0.4 nM.

For `O=C(CSc1nc(-c2ccncc2)cs1)NC[C@H]1CN(Cc2ccc(Cl)c(Cl)c2)CCO1` [Example 11, (2S)-N-{[4-(3,4-dichlorobenzyl)morpholin-2-yl]methyl}-[4-(pyridin-4-yl)thiazol-2-ylthio]acetamide], the IC50 in assay [2] amounted to 0.8 nM.

For the molecule `NC(=O)c1cc(-c2csc(SCC(=O)NC[C@H]3CN(Cc4ccc(Cl)c(Cl)c4)CCO3)n2)ccc1O` [Example 10, (2S)-[4-(3-carbamoyl-4-hydroxyphenyl)thiazol-2-ylthio]-N-{[4-(3,4-dichlorobenzyl)morpholin-2-yl]methyl}acetamide], in assay [2], the IC50 came out at 2.4 nM.

As for `O=C(CSc1ccc(C(=O)O)cc1)NC[C@H]1CN(Cc2ccc(Cl)c(Cl)c2)CCO1` [Example 37, (2S)-(4-carboxyphenylthio)-N-{[4-(3,4-dichlorobenzyl)morpholin-2-yl]methyl}acetamide], the IC50 in assay [1] stood at 4.9 nM; in assay [2], 34.3 nM. Further, the minimal effective dose in assay [3] (setting [4]) and in assay [3] (setting [5]) was 3 mg/kg each time.

On to `Nc1cccc(-c2csc(SCC(=O)NC[C@H]3CN(Cc4ccc(Cl)c(Cl)c4)CCO3)n2)c1` [Example 9, (2S)-[4-(3-aminophenyl)thiazol-2-ylthio]-N-{[4-(3,4-dichlorobenzyl)morpholin-2-yl]methyl}acetamide], for which, in assay [2], the IC50 turned out to be 12.7 nM.
